Values of other authors as cited in patent US20230104358A1 (priority 2021, published 2023).

Key:
[1] = tested on: α2 adrenergic receptor
[2] = tested on: α1 adrenergic receptor
[3] = target: dopamine D1 (Homo sapiens, UniProt P21728)
[4] = target: T1, serotonin 5HT1C receptor (Homo sapiens, UniProt P28335)
T1 sequence (P28335 33-458): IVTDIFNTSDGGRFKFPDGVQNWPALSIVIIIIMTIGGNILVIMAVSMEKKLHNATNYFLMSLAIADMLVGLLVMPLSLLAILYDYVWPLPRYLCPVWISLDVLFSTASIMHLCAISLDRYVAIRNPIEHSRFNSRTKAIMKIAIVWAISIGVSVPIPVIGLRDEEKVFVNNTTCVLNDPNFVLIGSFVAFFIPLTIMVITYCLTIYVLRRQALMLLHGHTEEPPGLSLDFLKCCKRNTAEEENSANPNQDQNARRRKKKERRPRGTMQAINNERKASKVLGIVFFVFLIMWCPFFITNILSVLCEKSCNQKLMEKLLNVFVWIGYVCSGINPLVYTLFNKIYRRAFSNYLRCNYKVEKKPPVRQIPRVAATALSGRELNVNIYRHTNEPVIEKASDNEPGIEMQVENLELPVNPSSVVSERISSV

[5] = tested on: haloperidol-sensitive sigma site
[6] = target: serotonin 5HT1D receptor (Homo sapiens, UniProt P28221)
[7] = target: β2 adrenergic receptor (Homo sapiens, UniProt P07550)
[8] = target: T2, serotonin 5HT1A receptor (Homo sapiens, UniProt P08908)
T2 sequence (P08908 1-422): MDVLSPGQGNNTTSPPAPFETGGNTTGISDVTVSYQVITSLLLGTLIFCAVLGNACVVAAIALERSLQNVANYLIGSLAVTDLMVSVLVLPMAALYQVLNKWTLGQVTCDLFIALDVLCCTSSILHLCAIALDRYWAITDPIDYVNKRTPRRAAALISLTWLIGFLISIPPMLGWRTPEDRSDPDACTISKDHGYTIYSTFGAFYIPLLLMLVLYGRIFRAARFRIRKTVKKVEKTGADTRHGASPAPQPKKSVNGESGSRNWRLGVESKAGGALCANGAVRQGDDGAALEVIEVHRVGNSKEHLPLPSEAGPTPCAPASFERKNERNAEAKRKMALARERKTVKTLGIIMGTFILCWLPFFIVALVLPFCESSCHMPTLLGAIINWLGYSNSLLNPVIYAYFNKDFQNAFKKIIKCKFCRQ

[9] = target: β1 adrenergic receptor (Homo sapiens, UniProt P08588)
[10] = target: dopamine Type 2 (D2) receptor (Homo sapiens, UniProt P14416)
Sequence of dopamine Type 2 (D2) receptor (P14416 whole entry): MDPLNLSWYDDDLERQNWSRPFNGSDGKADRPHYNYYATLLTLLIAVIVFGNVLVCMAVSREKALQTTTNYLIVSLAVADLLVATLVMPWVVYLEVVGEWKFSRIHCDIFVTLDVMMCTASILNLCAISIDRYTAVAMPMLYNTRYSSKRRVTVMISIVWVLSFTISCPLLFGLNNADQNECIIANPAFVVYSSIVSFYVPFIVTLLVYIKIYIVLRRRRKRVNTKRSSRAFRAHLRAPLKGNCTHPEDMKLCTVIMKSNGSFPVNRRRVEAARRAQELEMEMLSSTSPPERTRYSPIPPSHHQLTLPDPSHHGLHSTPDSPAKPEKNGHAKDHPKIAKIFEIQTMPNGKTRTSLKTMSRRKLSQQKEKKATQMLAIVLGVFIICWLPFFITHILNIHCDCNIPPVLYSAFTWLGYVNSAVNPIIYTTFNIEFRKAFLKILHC

Sequence of serotonin 5HT1D receptor (P28221 whole entry): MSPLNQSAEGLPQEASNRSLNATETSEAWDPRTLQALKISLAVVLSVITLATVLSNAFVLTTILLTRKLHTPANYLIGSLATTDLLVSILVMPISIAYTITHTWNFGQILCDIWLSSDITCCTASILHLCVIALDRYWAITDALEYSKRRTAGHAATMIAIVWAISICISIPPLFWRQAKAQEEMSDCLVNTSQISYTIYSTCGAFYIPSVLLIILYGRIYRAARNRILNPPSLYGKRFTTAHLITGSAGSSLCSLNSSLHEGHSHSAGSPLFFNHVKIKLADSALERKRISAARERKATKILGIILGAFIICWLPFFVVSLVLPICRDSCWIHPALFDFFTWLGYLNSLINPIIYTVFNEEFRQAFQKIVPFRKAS
Sequence of β1 adrenergic receptor (P08588 whole entry): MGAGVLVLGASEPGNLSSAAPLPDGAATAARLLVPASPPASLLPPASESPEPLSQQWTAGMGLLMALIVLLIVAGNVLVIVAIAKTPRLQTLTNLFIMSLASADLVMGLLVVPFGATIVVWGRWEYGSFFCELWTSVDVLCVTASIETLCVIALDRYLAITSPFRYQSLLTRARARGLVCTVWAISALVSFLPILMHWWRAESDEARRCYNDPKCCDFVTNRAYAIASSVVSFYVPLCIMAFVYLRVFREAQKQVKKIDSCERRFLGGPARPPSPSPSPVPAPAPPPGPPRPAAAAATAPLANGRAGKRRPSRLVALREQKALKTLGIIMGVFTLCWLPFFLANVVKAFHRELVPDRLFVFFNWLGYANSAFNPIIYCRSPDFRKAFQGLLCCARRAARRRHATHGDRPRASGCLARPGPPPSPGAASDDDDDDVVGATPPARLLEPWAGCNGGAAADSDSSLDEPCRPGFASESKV
Sequence of dopamine D1 (P21728 whole entry): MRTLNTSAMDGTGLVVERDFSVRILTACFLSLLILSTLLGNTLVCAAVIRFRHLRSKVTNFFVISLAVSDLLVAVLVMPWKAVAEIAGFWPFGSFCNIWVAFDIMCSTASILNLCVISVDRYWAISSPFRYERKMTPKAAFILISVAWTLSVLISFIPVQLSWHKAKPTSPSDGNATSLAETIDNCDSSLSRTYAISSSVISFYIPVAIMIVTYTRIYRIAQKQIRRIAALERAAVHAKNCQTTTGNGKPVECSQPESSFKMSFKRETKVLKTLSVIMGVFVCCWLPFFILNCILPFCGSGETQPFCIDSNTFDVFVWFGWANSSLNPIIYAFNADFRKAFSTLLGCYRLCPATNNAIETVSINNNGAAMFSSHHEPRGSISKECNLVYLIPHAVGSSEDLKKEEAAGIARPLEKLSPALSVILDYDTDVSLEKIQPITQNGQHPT
Sequence of β2 adrenergic receptor (P07550 whole entry): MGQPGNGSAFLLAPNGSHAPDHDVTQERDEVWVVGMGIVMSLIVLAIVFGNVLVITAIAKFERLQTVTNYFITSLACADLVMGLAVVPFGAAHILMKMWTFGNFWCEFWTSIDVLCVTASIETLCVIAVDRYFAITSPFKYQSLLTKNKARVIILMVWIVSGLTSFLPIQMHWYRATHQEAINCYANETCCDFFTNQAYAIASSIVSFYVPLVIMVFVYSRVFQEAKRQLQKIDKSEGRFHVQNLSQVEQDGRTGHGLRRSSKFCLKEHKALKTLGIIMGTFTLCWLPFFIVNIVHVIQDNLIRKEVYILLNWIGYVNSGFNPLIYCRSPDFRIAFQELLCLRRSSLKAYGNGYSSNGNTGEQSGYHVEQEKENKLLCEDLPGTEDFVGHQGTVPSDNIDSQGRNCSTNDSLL

Cc1nc2n(c(=O)c1CCN1CCC(c3noc4cc(F)ccc34)CC1)CCCC2 [Risperidone]
affinity for α2 adrenergic receptor [1]: high affinity
affinity for α1 adrenergic receptor [2]: high affinity
affinity for dopamine D1 [3]: weak affinity
affinity for serotonin 5HT1C receptor [4]: low to moderate affinity
affinity for haloperidol-sensitive sigma site [5]: weak affinity
affinity for serotonin 5HT1D receptor [6]: low to moderate affinity
affinity for β2 adrenergic receptor [7]: no affinity
affinity for serotonin 5HT1A receptor [8]: low to moderate affinity
affinity for β1 adrenergic receptor [9]: no affinity
affinity for dopamine Type 2 (D2) receptor [10]: high affinity
